Here are results for 51 compounds from PubChem BioAssay AID2842 (Southern Research Institute, 2010).

≈ marks a conversion by molar mass, not a printed value.

The assay concerns M. tuberculosis H37Rv growth inhibition. The experiment in a line: Mycobacterium tuberculosis H37Rv growth inhibition, putative kinase inhibitor library, confirmatory dose response (AID 2842).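 Note: bacteria incubated one week before Alamar blue readout.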

For the compound `Cc1ccc(NC(=O)CC2Nc3cccc4cccc(c34)NC2=O)cc1` (stereo unspecified), the IC90 was 61.8 µg/mL (≈ 179 µM).

Turning to `COc1ccc(-c2nnc(NC(=O)c3ccccc3F)o2)cc1`, the IC90 is 66.9 µg/mL (≈ 214 µM).

As to `CSc1ccccc1-c1nnc(NC(=O)c2cc([N+](=O)[O-])ccc2Cl)o1`, the IC90 was 2.12 µg/mL (≈ 5.42 µM).

Consider `O=C(Nc1nnc(-c2cccs2)o1)c1cccc(C(F)(F)F)c1`, for which the concentration for an effect of 90% (IC90) is 3.48 µg/mL (≈ 10.3 µM).

Regarding `O=C(Nc1nnc(C2=COCCO2)o1)c1ccc2c(c1)CCCC2`, the IC90 was 0.44 µg/mL (≈ 1.34 µM).

Regarding `COc1ccc(-c2nnc(NC(=O)c3ccc(Cl)s3)o2)cc1`, the IC90 was 0.94 µg/mL (≈ 2.8 µM).

For `COc1ccc(O)c(/C=N/NC(=O)c2ccncc2)c1`, the 90% effect concentration (IC90) was 0.82 µg/mL (≈ 3.02 µM).

For `CCCCc1ccc(NCCn2c(C)c(C)n3c4c(=O)[nH]c(=O)n(C)c4nc23)cc1`, the IC90 is 12.6 µg/mL (≈ 30.8 µM).

`CN(C)S(=O)(=O)c1ccc(C(=O)Nc2nnc(-c3cc(Cl)ccc3Cl)o2)cc1`: the IC90 is 3.89 µg/mL (≈ 8.81 µM).

Take `COc1ccc(OC)c(Nc2nc(NCCN(C)C)nc3c2cnn3-c2ccccc2)c1`: the IC90 is 7.29 µg/mL (≈ 16.8 µM).

On to `O=C(CS(=O)(=O)c1ccccc1)Nc1cccc2c1C(=O)c1ccccc1C2=O`, for which the IC90 was 20.9 µg/mL (≈ 51.5 µM).

As to `CCOc1cc(-c2nnc(NC(=O)c3cccs3)o2)cc(OCC)c1OCC`, the IC90 was 3.02 µg/mL (≈ 7.49 µM).

Turning to `CCOc1ccc(NC(=O)c2c(Cl)ccc(Cl)c2Cl)cc1`, the IC90 was 11.7 µg/mL (≈ 34 µM).

With `COc1ccc(C(=O)Nc2nnc(-c3ccc(C)cc3C)o2)cc1`, the IC90 is 23.6 µg/mL (≈ 72.9 µM).

In the case of `O=C(Nc1nnc(-c2ccco2)o1)c1cc(Cl)ccc1Cl`, the IC90 is 4.99 µg/mL (≈ 15.4 µM).

`Cc1cc(NCCCn2ccnc2)n2ncc(-c3ccccc3)c2n1`: the IC90 was 3.12 µg/mL (≈ 9.39 µM).

Take `Cc1nnc2ccc(-c3cccc(NC(=O)COc4ccc(Cl)cc4)c3)nn12`: the IC90 is 23.5 µg/mL (≈ 59.6 µM).

For `CC(C)(C)c1csc(Nc2nc3c(F)cccc3s2)n1`, the IC90 is 6.52 µg/mL (≈ 21.2 µM).

On to `Oc1ccc(Nc2nc(NCc3ccccc3)c3ccccc3n2)cc1`, for which the IC90 is 2.59 µg/mL (≈ 7.56 µM).

In the case of `Cc1ccc(C)c(-c2nnc(NC(=O)c3ccc4ccccc4c3)o2)c1`, the IC90 is 18.8 µg/mL (≈ 54.7 µM).

`COc1ccc2nc(Nc3nc(-c4cccs4)cs3)sc2c1`: the IC90 was 37.8 µg/mL (≈ 109 µM).

Take `Cc1ccc(C)c(-c2csc(NC(=O)c3ccc([N+](=O)[O-])s3)n2)c1`: the 90% effect concentration (IC90) is 3.37 µg/mL (≈ 9.38 µM).

For `O=C(CCSc1ccccc1)Nc1nc(-c2ccccn2)cs1`, the IC90 is 21.8 µg/mL (≈ 63.9 µM).

As to `CC(O)CNc1ncnc2c1cnn2-c1ccc(Cl)c(Cl)c1` (stereo unspecified), the IC90 was 12.5 µg/mL (≈ 37 µM).

As for `O=C(Nc1nnc(-c2ccc(F)cc2)o1)c1ccc2c(c1)CCCC2`, the IC90 is 8.65 µg/mL (≈ 25.6 µM).

For the compound `Cc1nc2cc(NC(=O)Nc3ccc(Cl)cc3)ccc2n1-c1ccccc1`, the IC90 is 6.97 µg/mL (≈ 18.5 µM).

As for `CC(C)(C)C(=O)Nc1nnc(C2=COCCO2)o1`, the 90% effect concentration (IC90) is 48.6 µg/mL (≈ 192 µM).

In the case of `COc1cccc(-c2nnc(NC(=O)c3ccc(Cl)cc3Cl)o2)c1`, the IC90 is 8.25 µg/mL (≈ 22.7 µM).

As for `COc1ccc(C(=O)Nc2nnc(-c3cc(C)ccc3C)o2)c(OC)c1`, the IC90 was 13.4 µg/mL (≈ 38 µM).

As to `O=C(Nc1nnc(-c2ccc3c(c2)CCCC3)o1)c1c(F)cccc1F`, the IC90 is 4.5 µg/mL (≈ 12.7 µM).

Regarding `CN(C)S(=O)(=O)c1ccc(C(=O)Nc2nnc(-c3ccc(Br)cc3)o2)cc1`, the IC90 was 6.69 µg/mL (≈ 14.8 µM).

Regarding `C=CCOC(=O)C1=C(C)NC(SCC(=O)OCC)=C(C#N)C1c1cccs1` (stereo unspecified), the IC90 was 4.44 µg/mL (≈ 11 µM).

For `Cc1ccc(-c2nnc(NC(=O)CCOc3ccccc3)o2)c(C)c1`, the IC90 was 1.8 µg/mL (≈ 5.34 µM).

Regarding `COc1ccc(C(=O)N(CCCn2ccnc2)c2nc3c(C)ccc(C)c3s2)cc1OC`, the concentration for an effect of 90% (IC90) is 17 µg/mL (≈ 37.7 µM).

As for `O=c1cnnc(N/N=C/c2c(O)ccc3ccccc23)[nH]1`, the IC90 is less than 0.2 µg/mL.

In the case of `O=C(CCSc1ccccc1)Nc1nnc(-c2cccs2)o1`, the IC90 was 7.87 µg/mL (≈ 23.7 µM).

Take `Cc1ccc(C(=O)Nc2nnc(-c3cc(C)ccc3C)o2)c(C)c1`: the IC90 was 7.29 µg/mL (≈ 22.7 µM).

As to `CCOC(=O)COc1cccc(/C=C2\Oc3cc(OC)ccc3C2=O)c1`, the IC90 is 3.52 µg/mL (≈ 9.93 µM).

Take `O=C(Nc1cccc(Cl)c1)Nc1c2c(nn1-c1ccccc1)CSC2`: the IC90 was 19.7 µg/mL (≈ 53.2 µM).

Consider `Cc1nnsc1C(=O)Nc1ccc([N+](=O)[O-])cc1C(F)(F)F`, for which the concentration for an effect of 90% (IC90) is 28.1 µg/mL (≈ 84.5 µM).

Regarding `O=C(Nc1cccc(Cl)c1)c1cccc2nc3ccccc3nc12`, the IC90 was 4.6 µg/mL (≈ 13.8 µM).

Turning to `O=C1CN(C(=O)c2cc(Cl)ccc2Cl)C(c2ccccc2)c2cc(Cl)ccc2N1` (stereo unspecified), the IC90 was 6.59 µg/mL (≈ 14.8 µM).

With `O=C(Nc1nnc(-c2cccs2)o1)c1ccc([N+](=O)[O-])s1`, the 90% effect concentration (IC90) was 1.69 µg/mL (≈ 5.24 µM).

For the compound `Cc1ccc(-c2nnc(NC(=O)c3ccc(S(=O)(=O)N4CCC(C)CC4)cc3)o2)c(C)c1`, the IC90 was 46.7 µg/mL (≈ 103 µM).

With `O=C(CSc1nnc(-c2ccncc2)o1)N1CCCCC1`, the IC90 is 14.2 µg/mL (≈ 46.7 µM).

`Fc1ccc(N2CCN(c3nc(Nc4ccccc4)c4nccnc4n3)CC2)cc1`: the IC90 is 1.69 µg/mL (≈ 4.21 µM).

Take `CCOC(=O)C(C)Sc1ncnc2c1nnn2Cc1ccc(F)cc1` (stereo unspecified): the IC90 is 0.51 µg/mL (≈ 1.41 µM).

Regarding `C/C(=N\Nc1nc(=O)[nH]nc1C)c1ccccc1O`, the IC90 is less than 0.2 µg/mL.

In the case of `Cc1ccc(C)c(-c2nnc(NC(=O)C3=COCCO3)o2)c1`, the 90% effect concentration (IC90) was less than 0.2 µg/mL.

`COC(=O)c1ccc(C(=O)NNc2nc3ccc(Cl)cc3s2)cc1`: the IC90 was 28.9 µg/mL (≈ 79.8 µM).

Take `Cc1ccc2c(c1)=C(c1sc(=O)[nH]c1O)C(=O)N=2`: the IC90 was 22.8 µg/mL (≈ 87.7 µM).

A word on the IC90: it is the point of the concentration-response curve where the effect stands at 90%.
